Experimental data as given in patent US8785422B2, “A-ring modified 19-nor-vitamin D analogs and their uses” (Wisconsin Alumni Research Foundation, priority 2012, dated 2014).
“Also recorded” adds a separate entry of the source.

Assays:
[1] = tested on: Human promyelocyte leukemia (HL60) cells; assay: HL-60 differentiation (nitro blue tetrazolium reduction); format: cell-based; conditions: four days, FIG. 2
Experimental: The study drugs were dissolved in ethanol and the concentrations determined using UV spectrophotometry. Serial dilutions were prepared so that a range of drug concentrations could be tested without changing the final concentration of ethanol (≦0.2%) present in the cell cultures.
Human promyelocyte leukemia (HL60) cells were grown in RPMI-1640 medium containing 10% fetal bovine serum. The cells were incubated at 37° C. in the presence of 5% CO2.
HL60 cells were plated at 1.2×10^5 cells/ml. Eighteen hours after plating, cells in duplicate were treated with drug. Four days later, the cells were harvested and a nitro blue tetrazolium reduction assay was performed. (See Collins et al., 1979: J. Exp. Med. 149:969-974), The percentage of differentiated cells was determined by counting a total of 200 cells and recording the number that, contained intracellular black-blue formazan deposits. Verification of differentiation to monocytic cells was determined by measuring phagocytic activity.

[2] = tested on: 24-hydroxylase (24 Ohase) gene promoter upstream of a luciferase reporter gene in ROS 1.7/2.8 (bone) cells; assay: In vitro transcription assay (luciferase reporter); format: cell-based; conditions: 24-hydroxylase promoter luciferase, sixteen hours after dosing; FIG. 3; read-out: EC50, stimulation of gene transcription in bone cells
Experimental: In Vitro Transcription Assay.
Transcription activity was measured in ROS 1.7/2.8 (bone) cells that were stably transfected with a 24-hydroxylase (24 Ohase) gene promoter upstream of a luciferase reporter gene. (See Arbour et al., 1998). Cells were given a range of doses. Sixteen hours after dosing the cells were harvested and luciferase activities were measured using a luminometer. RLU=relative luciferase units.

[3] = tested on: bone calcium mobilization; assay: Bone calcium mobilization (serum calcium) in vitamin D-deficient rats; format: in vivo, Sprague-Dawley rats; conditions: low calcium diet (0.02%), ip once daily for 4 consecutive days, DA2HE up to 35100 pmol/day, FIG. 4
Excerpt: (§1) Intestinal Calcium Transport and Bone Calcium Mobilization Male, weanling Sprague-Dawley rats were placed on Diet 11 (see Suda et al., J. Nutr. 100:1049, 1970) (0.47% Ca)+vitamins AEK for one week followed by Diet 11 (0.02% Ca)+vitamins AEK for 3 weeks. The rats were then switched to the same diet containing 0.47% Ca for one week followed by two weeks on the same diet containing 0.02% Ca. Dose administration began during the last week on 0.02% calcium diet. Four consecutive ip doses were given approximately 24 hours apart. Twenty-four hours after the last dose, blood was collected from the severed neck and the concentration of serum calcium determined by atomic absorption spectrometry as a measure of bone calcium mobilization. The first 10 cm of the intestine was also collected for intestinal calcium transport analysis using the everted gut sac method.

[4] = target: T1, full-length recombinant rat vitamin D receptor (Rattus norvegicus, UniProt P13053); assay: Vitamin D receptor binding, competition with [3H]-1,25(OH)2D3; conditions: FIG. 1
T1 construct: Full-length recombinant rat receptor was expressed in E. coli BL21 (DE3) Codon Plus RIL cells; histidine tag (C); made in house; host or cells: E. coli BL21 (DE3) Codon Plus RIL
T1 sequence (P13053 1-423): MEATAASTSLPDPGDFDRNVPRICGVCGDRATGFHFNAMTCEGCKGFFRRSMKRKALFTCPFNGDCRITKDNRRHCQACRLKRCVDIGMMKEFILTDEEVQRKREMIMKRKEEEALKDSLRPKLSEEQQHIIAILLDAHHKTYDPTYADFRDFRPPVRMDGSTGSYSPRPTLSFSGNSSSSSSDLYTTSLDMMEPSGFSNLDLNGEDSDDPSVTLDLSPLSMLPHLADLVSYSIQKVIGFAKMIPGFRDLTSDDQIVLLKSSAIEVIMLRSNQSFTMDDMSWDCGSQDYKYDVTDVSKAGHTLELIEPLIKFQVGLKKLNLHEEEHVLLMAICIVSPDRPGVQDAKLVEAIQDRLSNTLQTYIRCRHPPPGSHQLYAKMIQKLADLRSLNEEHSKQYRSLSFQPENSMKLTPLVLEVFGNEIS
Excerpt: Vitamin D Receptor Binding
Full-length recombinant rat receptor was expressed in E. coli BL21 (DE3) Codon Plus RIL cells and purified to homogeneity using two different column chromatography systems. The first system was a nickel affinity resin that utilizes the C-terminal histidine tag on this protein. The protein that was eluted from this resin was further purified using ion exchange chromatography (S-Sepharose Fast Flow). Aliquots of the purified protein were quick frozen in liquid nitrogen and stored at −80° C. until use. For use in binding assays, the protein was diluted in TEDK50 (50 mM Tris, 1.5 mM EDTA, pH 7.4, 5 mM DTT, 150 mM KCI) with 0.1% Chaps detergent. The receptor protein and ligand concentration was optimized such that no more than 20% of the added radiolabeled ligand was bound to the receptor.
Assay Conditions. Radiolabeled and unlabeled ligands were added to 100 mcl of the diluted protein at a final ethanol concentration of ≦10%, mixed and incubated overnight on ice to reach binding equilibrium. The following day, 100 mcl of hydroxylapatite slurry (50%) was added to each tube and mixed at 10-minute intervals for 30 minutes. The hydroxylapaptite was collected by centrifugation and then washed three times with Tris-EDTA buffer (50 mM Tris, 1.5 mM EDTA, phi 7.4) containing 0.5% Triton X-100. After the final wash, the pellets were transferred to scintillation vials containing 4 ml of Biosafe II scintillation cocktail, mixed and placed in a scintillation counter. Total binding was determined from the tubes containing only radiolabeled ligand.

[5] = tested on: intestinal calcium transport; assay: Intestinal calcium transport (everted gut sac) in vitamin D-deficient rats; format: in vivo, Sprague-Dawley rats; conditions: 4 consecutive ip doses, FIG. 5
Excerpt: as §1

SMILES | EC50 [1] | EC50 [2] | bone calcium mobilization activity (serum calcium) [3] | VDR binding activity relative to 1α,25-dihydroxyvitamin D3 ([4]; compared to natural hormone) | Ki ([4]; full-length recombinant rat vitamin D receptor, read-out: Ki, competition with [3H]-1,25(OH)2D3 for binding to VDR) | VDR binding activity relative to standard 1α,25-(OH)2D3, in log ([4]; less activity than standard) | EC50 ([1]; Homo sapiens, HL-60, 96 h) | potency in promoting active calcium transport across the gut relative to 1α,25(OH)2D3 [5] | intestinal calcium transport activity ([5]; low calcium diet (0.02%), everted gut sac)
C=C1/C(=C\C=C2/CCC[C@]3(C)[C@@H]([C@H](C)CCCC(C)(C)O)CC[C@@H]23)C[C@@H](O)C[C@@H]1O [1α,25-dihydroxyvitamin D3, reference compound] | 3 nM | 0.08 nM | increased serum calcium levels |  |  |  |  |  | 
C[C@H](CCCC(C)(C)O)C1CCC2/C(=C/C=C(CCO)CCO)CCC[C@@]21C (some centres unmarked) [DA2HE, seco-A-2,19-dinor-1,25-dihydroxyvitamin D3] |  | 40 nM | lacks any bone calcium mobilization activity; also recorded: no mobilization of bone calcium | about 10 times less activity | 0.4 nM | about one | 300 nM | about 10 times less potent | relatively high intestinal calcium transport activity which increases in a dose dependent manner
